Experimental data as given in patent US7553868B2, “Thiophene carboxamides as inhibitors of the enzyme IKK-2” (AstraZeneca AB, priority 2003, dated 2009).

Tests used:
[1] = target: T1, IKK-2 (Homo sapiens, UniProt O14920); assay: IKK-2 filter kinase assay; type: biochemical; conditions: 1 μM ATP, 1-53 GST-IκB substrate, read-out: Inhibition of IKK-2
T1 sequence (O14920 1-756): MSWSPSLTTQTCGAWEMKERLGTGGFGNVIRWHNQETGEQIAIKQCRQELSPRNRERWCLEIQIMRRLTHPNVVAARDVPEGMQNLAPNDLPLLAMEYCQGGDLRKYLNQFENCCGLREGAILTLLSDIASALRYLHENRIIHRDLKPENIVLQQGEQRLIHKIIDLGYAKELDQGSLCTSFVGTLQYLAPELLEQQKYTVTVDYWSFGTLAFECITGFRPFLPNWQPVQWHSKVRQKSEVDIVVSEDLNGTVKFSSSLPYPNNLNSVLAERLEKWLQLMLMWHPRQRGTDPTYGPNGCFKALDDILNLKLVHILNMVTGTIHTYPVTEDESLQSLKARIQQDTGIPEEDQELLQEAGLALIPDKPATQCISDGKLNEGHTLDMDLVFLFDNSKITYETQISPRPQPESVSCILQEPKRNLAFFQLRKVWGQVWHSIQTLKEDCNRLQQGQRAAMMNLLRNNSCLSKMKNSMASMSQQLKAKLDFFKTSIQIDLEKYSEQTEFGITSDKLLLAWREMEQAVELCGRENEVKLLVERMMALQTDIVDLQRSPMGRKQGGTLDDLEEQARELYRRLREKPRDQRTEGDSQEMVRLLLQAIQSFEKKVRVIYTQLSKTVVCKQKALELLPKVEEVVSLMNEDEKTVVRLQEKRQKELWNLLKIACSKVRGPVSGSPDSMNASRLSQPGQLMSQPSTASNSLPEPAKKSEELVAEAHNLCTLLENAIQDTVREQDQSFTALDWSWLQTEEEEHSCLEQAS
Procedure: IKK-2 Filter Kinase Assay
The test compounds were dissolved to 10 mM in dimethylsulphoxide (DMSO). The compounds were then diluted 1 in 40 in kinase buffer (50 mM Tris, pH 7.4 containing 0.1 mM EGTA, 0.1 mM sodium orthovanadate and 0.1% β-mercaptoethanol). 1 in 3 serial dilutions were made from this solution with 2.5% DMSO in kinase buffer. 20 μl of compound dilution was added to wells of a 96 well plate in duplicate. 20 μl 2.5% DMSO in kinase buffer instead of compound was added to control wells (0% inhibition). […] 10 μl of a mixture of magnesium acetate, unlabelled ATP, and ^33P-labelled ATP was added to each well made such that the final concentration was 10 mM magnesium acetate, 1 μM ATP and 0.1 μCi ^33P ATP. […] The final reaction volume was 50 μl.
The kinase reactions were incubated at 21° C. for 80 minutes and the reaction stopped by precipitating the protein by the addition of an equal volume (50 μl) of 20% trichloroacetic acid (TCA). The precipitate was allowed to form for 10 minutes and then filtered onto a GF/C unifilter 96 well plate. Each filter was washed twice with approximately 1 ml 2% TCA. The filter plate was dried at 30-40° C. for 60 minutes, 20 μl scintillant was added to each well and the plate sealed and radioactivity counted on a Packard Topcount microplate scintillation counter.

[2] = system: Caco-2 cell monolayers; assay: Compound permeability and efflux potential using Caco-2 cell monolayers; type: in vitro ADME, human; design: Caco-2 Assay Papp: unit not given here; conditions: 10 μM compound, pH 7.4, 120 min at 37° C.; Papp(A-B) used for absorption category
Excerpt: (§1) Assessment of Compound Permeability and Efflux Potential using CACO-2 Cell Monolayers.
(§2) Caco-2 cells are a cell line derived from human colon cancer cells. The Caco-2 cells retain many of the properties of the human gut, including tight junctions and transporter proteins (e.g. pgp transporter), and are used primarily to assess the potential of compounds to be absorbed after oral administration. In this assay protocol, transports in the apical to basolateral direction (A-B direction) as well as in the opposite direction (B-A direction) are determined to assess both permeability and efflux potentials of the test compounds.
(§3) Cells are seeded at a density of 100,000 cells/well onto 1 μm filters within each well of 24-well plates (Beckton-Dickinson, UK) and grown until an intact monolayer of the cells is formed across each well (14 days).
(§4) When ready for use the intactness of the monolayers is assessed using measurement of the Trans-Epithelial Resistance (TEER) within each well. If TEERs are acceptable, each test compound is added to pH 7.4 buffer to a concentration of 10 μM in either the upper (Apical; A) or lower (Basolateral; B) chambers of the individual wells of the 24-well plates in duplicate, resulting in replicate measurements of the permeability of each compound through the monolayers in both the A-B and B-A directions. Four reference compounds are incubated alongside test compounds for quality control purposes (low, medium and high permeability plus one known efflux substrate).
(§5) After mixing, an aliquot of the donor chamber is taken immediately for analysis (TO). The plates are then incubated for 120 min at 37° C., after which a further aliquot is taken from the donor chamber (used to assess recovery over the duration of the experiment), while a similar aliquot is taken from the recipient chamber at this time (T120 sample).
(§6) All sample manipulations are undertaken on a Tecan Genesis RS200 robot.
(§7) All samples are analysed using LC-electrospray MS (both + and − mode), and peak areas used to quantify each test agent.
(§8) From the data obtained the rate of transfer (Papp) of each compound across the monolayer is calculated in either the A-B or B-A directions. From the Papp(A-B) data, the potential human absorption is categorised as LOW (Papp<=[…].cm^2.sec^−1), PARTIAL (Papp>0.5<=2.9×10^6 cm^2.sec^−1) or HIGH (Papp>2.9×10^6.cm^2.sec^−1), while from the Papp(B-A)/Papp(A-B) ratio, the potential for efflux of the test compound is assessed, where a ratio≧5 is categorised as HIGH, and <5 is categorised as LOW.

[3] = as above; type: in vitro ADME, human; design: Caco-2 Assay Papp: unit not given here; conditions: human, Caco-2; 10 μM compound, pH 7.4, 120 min at 37° C.; efflux ratio; read-out: Caco-2 Assay Papp (B-A)/Papp(A-B) Ratio
Excerpt: as §1, §2, §3, §4, §5, §6, §7, §8

Row | Structure (SMILES) | IC50 [1] [nM] | Caco-2 Assay Papp [2] | efflux ratio at 120 min, 10 μM [3]
1 | NC(=O)Nc1sc(-c2ccccc2OCCN2Cc3ccccc3C2)cc1C(N)=O [Example 5, 2-[(Aminocarbonyl)amino]-5-[2-{2-(1,3-dihydro-2H-isoindol-2-yl)ethoxy}phenyl]thiophene-3-carboxamide] | 150 | 14.3 | 0.66
2 | NC(=O)Nc1sc(-c2ccccc2OC2CCN(Cc3ccccc3)C2)cc1C(N)=O (stereo not drawn) [Example 7, 2-[(Aminocarbonyl)amino]-5-[2-{[1-benzylpyrrolidin-3-yl]oxy}phenyl]thiophene-3-carboxamide] | 40 | 15.7 | 1.07
3 | NC(=O)Nc1cc(-c2ccccc2OCCN2Cc3ccccc3C2)sc1C(N)=O [Example 13, 3-[(Aminocarbonyl)amino]-5-[2-{2-(1,3-dihydro-2H-isoindol-2-yl)ethoxy}phenyl]thiophene-2-carboxamide] | 1430 | 23.6 | 1.26

Now those with a lower IC50 [1], led by results:

Row | IC50 [1] [nM] | Caco-2 Assay Papp [2] | efflux ratio at 120 min, 10 μM [3] | Structure (SMILES)
4 | 30 | 1.86 | 5.88 | COCCN1CCC(Oc2ccccc2-c2cc(C(N)=O)c(NC(N)=O)s2)C1 (stereo not drawn) [2-[(Aminocarbonyl)amino]-5-(2-{[1-(2-methoxyethyl)-pyrrolidin-3-yl]oxy}phenyl)-3-thiophenecarboxamide, reference compound]
5 | 10 | 2.19 | 8.14 | CN1CCC(Oc2ccccc2-c2cc(C(N)=O)c(NC(N)=O)s2)C1 (stereo not drawn) [2-[(Aminocarbonyl)amino]-5-(2-[{1-methylpyrrolidin-3-yl}oxy]phenyl)-3-thiophenecarboxamide, reference compound]
